This note sets out measurements from patent US11001570B2, “6-amino-quinolinone compounds and derivatives as BCL6 inhibitors” (Boehringer Ingelheim International GmbH, priority 2016, dated 2021).

This experiment deals with T1, BCL6::BCOR (Homo sapiens, UniProt P41182, C67R/C84N/C8Q).
T1 construct: BCL6 (amino acids 5 to 129, with the following changes to the natural protein); made in house; host or cells: E. coli
The experiment is described as follows: BCL6::BCOR ULight TR-FRET assay. The class given is binding. The source says:
Biological Methods BCL6::BCOR ULight TR-FRET Assay:
Biotinylated BCL6 protein corresponding to BCL6 (amino acids 5 to 129, with the following changes to the natural protein: C8Q, C67R, C84N) is expressed in E. coli with a carboxy-terminal Avi tag (amino acid sequence […]). The BCOR ULight peptide uses a direct carboxy-terminal ULight tag (PerkinElmer). The sequence of the peptide is CRSEIISTAPSSWVVPGP, with the amino terminus acetylated and the ULight tag attached to the cysteine. Compounds are dispensed onto assay plates (Proxiplate 384 PLUS, white, PerkinElmer) using an Access Labcyte Workstation with the Labcyte Echo 55×from a DMSO solution. For the chosen highest assay concentration of 100 μM, 150 nl of compound solution are transferred from a 10 mM DMSO compound stock solution. A series of 11 concentrations is transferred for each compound at which each concentration is fivefold lower than the previous one. DMSO is added such that every well has a total of 150 nl compound solution. 5 μL of 1 nM BCL6 protein in assay buffer (50 mM HEPES pH 7.3; 125 mM NaCl; 1 mM GSH; 0.01% Triton-X 100; 0.03% BSA) are added to the 150 nl of compounds. After 30 minutes incubation time at room temperature, 10 μL of a mix containing BCOR ULight peptide (100 nM final assay concentration) and Streptavidin-Europium (0.75 nM final assay concentration) are added. Plates are kept at room temperature. After 240 minutes incubation time the TR-FRET signal is measured in a PerkinElmer Envision HTS Multilabel Reader using the TR-FRET LANCE Ultra specs of PerkinElmer. Each plate contains negative controls (diluted DMSO instead of test compound; BCOR peptide and Streptavidin Europium mix with BCL6 protein) and positive controls (diluted DMSO instead of test compound; BCOR peptide and Streptavidin-Europium mix without BCL6 protein). Negative and positive control values are used for normalization.

Consider `CNC(=O)COc1cc2cc(Nc3nc(N4CCC(N5CCC(C)CC5)CC4)ncc3Cl)ccc2n(C)c1=O` [Compound I-40], for which the IC50 worked out at 9 nM. This counts as single-digit nanomolar.

The compound `CNC(=O)COc1cc2cc(Nc3nc(N4CCC(N5CCCC5)CC4)ncc3Cl)ccc2n(C)c1=O` [Compound I-41] had an IC50 of 8 nM.

Take `CNC(=O)COc1cc2cc(Nc3nc(N4CCC(N5CCCCC5)CC4)ncc3Cl)ccc2n(C)c1=O` [Compound I-42]: half-maximal inhibition (IC50) required 9 nM. This IC50 and that of the compound before are within 1.5-fold of each other.

With `CNC(=O)COc1cc2cc(Nc3nc(N4CCC(CCN5CCCCC5)CC4)ncc3Cl)ccc2n(C)c1=O` [Compound I-43], the IC50 came to 6 nM.

For `CNC(=O)COc1cc2cc(Nc3nc(N4CCC(CN5CCOCC5)CC4)ncc3Cl)ccc2n(C)c1=O` [Compound I-44], the IC50 came out at 9 nM. Compared with the last compound, the IC50 is about 1.5-fold higher.

Turning to `CNC(=O)COc1cc2cc(Nc3nc(N4CCC(N(C)C)CC4)ncc3Cl)ccc2n(C)c1=O` [Compound I-45], the IC50 came out at 7 nM.

As to `CNC(=O)COc1cc2cc(Nc3nc(N4CCCN(C)CC4)ncc3Cl)ccc2n(C)c1=O` [Compound I-46], inhibition was half-maximal at 13 nM (IC50).

Compound `CNC(=O)COc1cc2cc(Nc3nc(N4CCc5cnccc5C4)ncc3Cl)ccc2n(C)c1=O` [Compound I-47] had an IC50 of 5 nM.

In turn, `CNC(=O)COc1cc2cc(Nc3nc(N4C[C@@H](C)N(C)[C@@H](C)C4)ncc3Cl)ccc2n(C)c1=O` [Compound I-48] showed an IC50 of 11 nM.

Regarding `CNC(=O)COc1cc2cc(Nc3nc(N4CCN(C)C(C)(C)C4)ncc3Cl)ccc2n(C)c1=O` [Compound I-49], 11 nM corresponded to half-maximal inhibition (IC50).

The compound `CNC(=O)COc1cc2cc(Nc3nc(N4CCOC(C)(C)C4)ncc3Cl)ccc2n(C)c1=O` [Compound I-50] showed an IC50 of 5 nM. Compared with the last compound, the IC50 is about 2.2-fold lower.

In turn, `CNC(=O)COc1cc2cc(Nc3nc(N4CCO[C@@H](C)C4)ncc3Cl)ccc2n(C)c1=O` [Compound I-51] displayed an IC50 of 6 nM.

`CNC(=O)COc1cc2cc(Nc3nc(N4CCO[C@H](C)C4)ncc3Cl)ccc2n(C)c1=O` [Compound I-52] gave an IC50 of 7 nM.

As to `CNC(=O)COc1cc2cc(Nc3nc(N4C[C@@H](C)O[C@@H](C)C4)ncc3Cl)ccc2n(C)c1=O` [Compound I-53], half-maximal inhibition (IC50) required 6 nM.

Regarding `CNC(=O)COc1cc2cc(Nc3nc(N4CCOCC4)ncc3Cl)ccc2n(C)c1=O` [Compound I-54], the IC50 was found to be 5 nM. The IC50 values of the last two compounds are within 1.5-fold of each other.

`CNC(=O)COc1cc2cc(Nc3nc(N4CCCC(F)CC4)ncc3Cl)ccc2n(C)c1=O` (centres unmarked) [Compound I-55] came in with an IC50 of 5 nM.

Take `CNC(=O)COc1cc2cc(Nc3nc(N4CCC(C(C)(C)C(=O)O)CC4)ncc3Cl)ccc2n(C)c1=O` [Compound I-56]: the IC50 came to 4 nM.

With `CNC(=O)COc1cc2cc(Nc3nc(N4CCC(N5C[C@H]6CC[C@@H](C5)O6)CC4)ncc3Cl)ccc2n(C)c1=O` [Compound I-57], the IC50 was found to be 6 nM.

In turn, `CNC(=O)COc1cc2cc(Nc3nc(N4CCC(N(C)CC(F)(F)F)CC4)ncc3Cl)ccc2n(C)c1=O` [Compound I-58] yielded an IC50 of 7 nM.

Compound `CNC(=O)COc1cc2cc(Nc3nc(N4CCC(N5CC6CCC5CC6)CC4)ncc3Cl)ccc2n(C)c1=O` [Compound I-59] showed an IC50 of 11 nM. This IC50 lies about 1.6-fold higher than the previous one.

Take `CNC(=O)COc1cc2cc(Nc3nc(N4CC5CC4CC5(F)F)ncc3Cl)ccc2n(C)c1=O` (centres unmarked) [Compound I-60]: the IC50 stood at 6 nM.

`CNC(=O)COc1cc2cc(Nc3nc(N4CCN(CC(=O)O)C(=O)C4)ncc3Cl)ccc2n(C)c1=O` [Compound I-61] gave a half-inhibitory concentration (IC50) of 4 nM.

Regarding `CNC(=O)COc1cc2cc(Nc3nc(N4CCC(C(=O)O)CC4)ncc3Cl)ccc2n(C)c1=O` [Compound I-62], the IC50 came to 4 nM. That is a single-digit nanomolar value.

For `CNC(=O)COc1cc2cc(Nc3nc(N4CCN(CC(=O)O)CC4)ncc3Cl)ccc2n(C)c1=O` [Compound I-63], the IC50 amounted to 8 nM.

In turn, `CNC(=O)COc1cc2cc(Nc3nc(N4C[C@H](F)C[C@@H](F)C4)ncc3Cl)ccc2n(C)c1=O` [Compound I-64] returned an IC50 of 9 nM.

The compound `CNC(=O)COc1cc2cc(Nc3nc(N4C[C@H](F)C[C@H](F)C4)ncc3Cl)ccc2n(C)c1=O` [Compound I-65] came in with an IC50 of 23 nM. Against the preceding compound, the IC50 is about 2.6-fold higher.
